# Laboratory results published in patent US11446287B2, “Compounds and methods for EP300 or CBP modulation and indications therefor” (Opna Immuno-Oncology SA, priority 2019, dated 2022).
# Molecular target: T1, Recombinant human BRD4 containing dual bromodomains (BRD4-BD12 (1-477)) (Homo sapiens, UniProt O60885)
# T1 construct: Recombinant human BRD4 containing dual bromodomains (BRD4-BD12 (1-477)); made in house; host or cells: E. coli BL21-CodonPlus (DE3), modified pET vector
# Assay: BRD4 Alphascreen binding assay
# Outline: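 AlphaScreen proximity between Ni-chelate-bound BRD4-BD12 (1-477) and streptavidin-captured H4 K5/K8/K12/K16-acetyl peptide measured after 1 h room-temperature compound incubation and 30 min with 7.5 μg/ml beads. Buffer: 50 mM HEPES pH 7.5, 50 mM NaCl, 0.01% BSA, 0.01% Triton X-100; data plate-normalized and four-parameter fit for IC50.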
row,Compound,IC50 [µM]
1,Cc1noc(C)c1-c1cnc2c(c1)c(-c1ccc(CC(=O)O)cc1F)cn2-c1ccc(F)cc1F [P-0437],1 to 8
2,"Cc1noc(C)c1-c1cnc2c(c1)c(-c1ccc(CC(=O)O)cc1)cn2-c1ccc(F)cc1F [P-0438, 2-(4-(1-(2,4-difluorophenyl)-5-(3,5-dimethylisoxazol-4-yl)-1H-pyrrolo[2,3-b]pyridin-3-yl)phenyl)acetic acid]",8 to 1000
3,"Cc1noc(C)c1-c1cnc2c(c1)c(-c1c(Cl)cc(C(=O)O)cc1OC(F)(F)F)cn2-c1cccnn1 [P-0439, 3-chloro-4-(5-(3,5-dimethylisoxazol-4-yl)-1-(pyridazin-3-yl)-1H-pyrrolo[2,3-b]pyridin-3-yl)-5-(trifluoromethoxy)benzoic acid]",0.0001 to 1
4,"COC(=O)c1cc(Cl)c(-c2cn(-c3ccc(C4CC4)nc3)c3ncc(-c4c(C)noc4C)cc23)c(OC(F)(F)F)c1 [P-0440, methyl 3-chloro-4-(1-(6-cyclopropylpyridin-3-yl)-5-(3,5-dimethylisoxazol-4-yl)-1H-pyrrolo[2,3-b]pyridin-3-yl)-5-(trifluoromethoxy)benzoate]",8 to 1000
5,"Cc1noc(C)c1-c1cnc2c(c1)c(-c1c(Cl)cc(C(=O)O)cc1OC(F)(F)F)cn2-c1ccc(C2CC2)nc1 [P-0441, 3-chloro-4-(1-(6-cyclopropylpyridin-3-yl)-5-(3,5-dimethylisoxazol-4-yl)-1H-pyrrolo[2,3-b]pyridin-3-yl)-5-(trifluoromethoxy)benzoic acid]",0.0001 to 1
6,"CCOc1cc(C(=O)O)c(F)cc1-c1cn(C2CCN(C(=O)OC(C)(C)C)CC2)c2ncc(-c3c(C)noc3C)cc12 [P-0442, 4-(1-(1-(tert-butoxycarbonyl)piperidin-4-yl)-5-(3,5-dimethylisoxazol-4-yl)-1H-pyrrolo[2,3-b]pyridin-3-yl)-5-ethoxy-2-fluorobenzoic acid]",8 to 1000
7,"COc1ccc(CC(=O)O)cc1-c1cn(-c2ccc(F)cc2F)c2ncc(-c3c(C)noc3C)cc12 [P-0443, 2-(3-(1-(2,4-difluorophenyl)-5-(3,5-dimethylisoxazol-4-yl)-1H-pyrrolo[2,3-b]pyridin-3-yl)-4-methoxyphenyl)acetic acid]",1 to 8
8,"Cc1noc(C)c1-c1cnc2c(c1)c(-c1cc(F)c(C(=O)O)cc1OC(F)(F)F)cn2-c1ccc(C2CC2)nc1 [P-0444, 4-(1-(6-cyclopropylpyridin-3-yl)-5-(3,5-dimethylisoxazol-4-yl)-1H-pyrrolo[2,3-b]pyridin-3-yl)-2-fluoro-5-(trifluoromethoxy)benzoic acid]",1 to 8
9,"CCOc1cc(C(=O)O)c(F)cc1-c1cn(C2CCN(C(=O)C(C)(C)C)CC2)c2ncc(-c3c(C)noc3C)cc12 [P-0445, 4-(5-(3,5-dimethylisoxazol-4-yl)-1-(1-pivaloylpiperidin-4-yl)-1H-pyrrolo[2,3-b]pyridin-3-yl)-5-ethoxy-2-fluorobenzoic acid]",8 to 1000
10,"CCOc1cc(C(=O)O)c(F)cc1-c1cn(C2CCN(CCC#N)CC2)c2ncc(-c3c(C)noc3C)cc12 [P-0446, 4-(1-(1-(2-cyanoethyl)piperidin-4-yl)-5-(3,5-dimethylisoxazol-4-yl)-1H-pyrrolo[2,3-b]pyridin-3-yl)-5-ethoxy-2-fluorobenzoic acid]",8 to 1000
11,"CCOc1cc(C(=O)O)c(F)cc1-c1cn(C2CCN(C(=O)CO)CC2)c2ncc(-c3c(C)noc3C)cc12 [P-0447, 4-(5-(3,5-dimethylisoxazol-4-yl)-1-(1-(2-hydroxyacetyl)piperidin-4-yl)-1H-pyrrolo[2,3-b]pyridin-3-yl)-5-ethoxy-2-fluorobenzoic acid]",8 to 1000
12,"CCc1onc(C)c1-c1cnc2c(c1)c(-c1c(Cl)cc(C(=O)O)cc1OC(F)(F)F)cn2-c1ccc(C2CC2)nc1 [P-0448, 3-chloro-4-(1-(6-cyclopropylpyridin-3-yl)-5-(5-ethyl-3-methylisoxazol-4-yl)-1H-pyrrolo[2,3-b]pyridin-3-yl)-5-(trifluoromethoxy)benzoic acid]",1 to 8
13,"Cc1nnn(C)c1-c1cnc2c(c1)c(-c1cccc(C(=O)O)c1)cn2[C@@H](C)c1ccccn1 [P-0449, (S)-3-(5-(1,4-dimethyl-1H-1,2,3-triazol-5-yl)-1-(1-(pyridin-2-yl)ethyl)-1H-pyrrolo[2,3-b]pyridin-3-yl)benzoic acid]",1 to 8
